For the experiment, the system named is primary human vascular smooth muscle cells. Nature of the experiment: Inhibition of cell proliferation, CyQUANT NF Cell Proliferation Assay. It counts as cell-based. The following applies: drug in solution, FIG. 11A, read-out: IC50, dose required to achieve 50% inhibition of cell proliferation.

In brackets after ≈: the same amount, converted by molar mass.

Description: Cell viability was determined using CyQUANT™ NF Cell Proliferation Assay kit (Cat #C35006, ThermoFisher Scientific). Fluorescent readings were taken by a microplate reader (Cytation 5, BioTek Instruments Inc., Vermont). […] A) Dose-response effect following treatment of cells with Paclitaxel (PTX) or Sirolimus (SRL) in solution. From the dose-response study, IC50 for each drug was determined. IC50 is the dose that is required to achieve 50% inhibition of cell proliferation with respect to untreated cell.
Determination of Synergistic Effect of Combination Paclitaxel and Sirolimus: The synergistic effect of the combination treatment was determined in vitro using human vascular smooth muscle cells. The IC50 i.e., the drug amount required to inhibit cell proliferation by 50% with respect to the untreated cells was determined using cell viability assay. Drug combination index (CI) was used to determine if the combination treatment is synergistic (CI=<1), additive (CI=1) or antagonistic (CI>1).
Method: Primary human vascular smooth muscle cells (VSMCs) were incubated with different doses of the encapsulated drug(s) for six days. Cell viability was determined using CyQUANT™ NF Cell Proliferation Assay kit (Cat #C35006, ThermoFisher Scientific). Fluorescent readings were taken by a microplate reader (Cytation 5, BioTek Instruments Inc., Vermont).

On to `CC(=O)O[C@H]1C(=O)[C@@]2(C)[C@H]([C@H](OC(=O)c3ccccc3)[C@]3(O)C[C@H](OC(=O)[C@H](O)[C@@H](NC(=O)c4ccccc4)c4ccccc4)C(C)=C1C3(C)C)[C@]1(OC(C)=O)CO[C@@H]1C[C@@H]2O` [PTX, Paclitaxel], for which the IC50 turned out to be 1.16 µg/mL (≈ 1.35 µM).

Take `CO[C@H]1C[C@@H]2CC[C@@H](C)[C@@](O)(O2)C(=O)C(=O)N2CCCC[C@H]2C(=O)O[C@H]([C@H](C)C[C@@H]2CC[C@@H](O)[C@H](OC)C2)CC(=O)[C@H](C)/C=C(\C)[C@@H](O)[C@@H](OC)C(=O)[C@H](C)C[C@H](C)/C=C/C=C/C=C/1C` [SRL, Sirolimus]: the IC50 was determined as 29.1 µg/mL (≈ 31.8 µM).
